Consider ten compounds from patent US5792775A (priority 1996, dated 1998).

The test system of test [1] is norepinephrine transporter (NET). As to the kind of experiment: biochemical. In kind it is binding. The following applies: DAT vs. NET.
The target of test [2] is norepinephrine transporter (NET) (Rattus norvegicus, UniProt Q63380). As to the kind of experiment: biochemical. In kind it is binding. To be noted: for inhibition at 10 µM: read-out: NET (% I@10 μM).
Test [3] has as its target serotonin transporter (5HTT) (Rattus norvegicus, UniProt P31652). As to the kind of experiment: Serotonin transporter binding ([^3 H]citalopram), NOVASCREEN
The following applies: for Ki: Table III, footnote d, read-out: 5HTT Ki value in nM (bracketed); for inhibition at 10 µM: read-out: 5HTT (% I@10 μM). The source says:
(§1) Serotonin (5-HTT), norepinephrine transporter (NET) and muscarinic m1 and m2 receptor binding data were provided by NOVASCREEN.

A further test addresses T1, muscarinic m2 receptors (Rattus norvegicus, UniProt P10980).
T1 sequence (P10980 1-466): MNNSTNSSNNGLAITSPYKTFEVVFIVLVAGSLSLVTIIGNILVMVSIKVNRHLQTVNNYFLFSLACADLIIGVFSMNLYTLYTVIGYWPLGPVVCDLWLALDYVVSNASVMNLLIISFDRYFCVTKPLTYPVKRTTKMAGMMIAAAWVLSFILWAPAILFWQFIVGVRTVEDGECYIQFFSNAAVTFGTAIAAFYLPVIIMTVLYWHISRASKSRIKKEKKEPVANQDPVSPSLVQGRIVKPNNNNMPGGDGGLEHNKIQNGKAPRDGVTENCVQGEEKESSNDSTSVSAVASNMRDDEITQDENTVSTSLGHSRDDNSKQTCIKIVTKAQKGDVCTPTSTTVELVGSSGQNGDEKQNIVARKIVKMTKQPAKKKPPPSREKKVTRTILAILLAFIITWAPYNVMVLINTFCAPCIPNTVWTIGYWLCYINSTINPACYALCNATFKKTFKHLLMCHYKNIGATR
The test is described as follows: Muscarinic m2 receptor binding ([^3 H]AFDX 384), NOVASCREEN
To be noted: for pKi: Table III.
Description: as §1

The next test deals with T2, muscarinic m1 receptors (Rattus norvegicus, UniProt P08482).
T2 sequence (P08482 1-460): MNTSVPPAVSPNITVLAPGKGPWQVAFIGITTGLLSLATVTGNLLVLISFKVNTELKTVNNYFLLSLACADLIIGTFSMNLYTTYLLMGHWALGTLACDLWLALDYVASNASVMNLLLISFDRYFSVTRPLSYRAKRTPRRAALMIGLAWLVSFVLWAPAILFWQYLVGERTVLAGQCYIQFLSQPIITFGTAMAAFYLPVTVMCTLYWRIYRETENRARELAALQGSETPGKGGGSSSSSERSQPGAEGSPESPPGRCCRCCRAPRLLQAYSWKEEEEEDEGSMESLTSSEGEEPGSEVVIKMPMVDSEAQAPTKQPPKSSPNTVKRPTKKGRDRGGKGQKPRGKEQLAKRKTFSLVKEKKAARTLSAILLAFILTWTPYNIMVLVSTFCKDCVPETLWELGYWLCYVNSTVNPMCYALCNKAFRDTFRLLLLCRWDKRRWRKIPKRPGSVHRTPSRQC
The test is described as follows: biochemical. To be noted: for pKi: read-out: m1, Ki. In kind it is binding.

Test [4] has as its target T3, dopamine transporter (DAT) (Rattus norvegicus, UniProt P23977).
T3 construct: brains removed to an ice-cooled dish for dissection of the caudate putamen; from tissue; host or cells: rat caudate putamen, washed membranes of male Sprague-Dawley rats (Taconic)
The test is described as follows: Displacement of [^3 H]WIN 35,428 binding (Dopamine Transporter Binding Assay). To be noted: Table III; displacement of [^3 H]WIN 35,428, rat caudate putamen; % error in parentheses.

Test [5] concerns dopamine uptake, rat caudate putamen. The test is classed as biochemical. To be noted: Table V; rat caudate putamen; read-out: [^3 H]DA Uptake Inhibition IC50.
The conditions of test [6]: animal models, literature; cited from earlier work.
Test [7] relates to locomotor activity in mice. As to the kind of experiment: Locomotor (ambulatory) activity. The following applies: i.p., FIGS. 5-8. The test is classed as in vivo, Swiss Webster mice. The source says:
Ambulatory activity of Male Swiss Webster mice (Taconic Farms) were studied in 40 cm^3 clear acrylic chambers. The acrylic chambers were placed inside monitors (Omnitech Electronics, Columbus, Ohio) that were equipped with light sensitive detectors, spaced 2.5 cm apart along two perpendicular walls. Mounted on the opposing walls were infrared light sources that were directed at the detectors. One count of horizontal activity was registered each time the subject interrupted two successive beams. Repetitive interruptions of the same beam due to behaviors, such as head bobbing or grooming, were not counted. Mice were injected and immediately placed in the apparatus for 60 min. Injections were administered i.p. in volumes of 1 mL/ 100 g. Each dose was studied in eight mice, and mice were used only once.
Horizontal activity counts are shown for the first 30 min of the session in which the maximal stimulation of activity was obtained. Each dose-effect curve was analyzed using standard analysis of variance (ANOVA) and post-hoc testing determine significance of effects at individual doses.

For test [8], the target named is T3, dopamine transporter (DAT). The following applies: read-out: DAT Ki, nM (% error); cited from earlier work.

pIC50, pKi: −log10 of the molar value. Read-outs that look alike come from different tables or passages of the source.

Chain of serotonin transporter (5HTT) (P31652 whole entry): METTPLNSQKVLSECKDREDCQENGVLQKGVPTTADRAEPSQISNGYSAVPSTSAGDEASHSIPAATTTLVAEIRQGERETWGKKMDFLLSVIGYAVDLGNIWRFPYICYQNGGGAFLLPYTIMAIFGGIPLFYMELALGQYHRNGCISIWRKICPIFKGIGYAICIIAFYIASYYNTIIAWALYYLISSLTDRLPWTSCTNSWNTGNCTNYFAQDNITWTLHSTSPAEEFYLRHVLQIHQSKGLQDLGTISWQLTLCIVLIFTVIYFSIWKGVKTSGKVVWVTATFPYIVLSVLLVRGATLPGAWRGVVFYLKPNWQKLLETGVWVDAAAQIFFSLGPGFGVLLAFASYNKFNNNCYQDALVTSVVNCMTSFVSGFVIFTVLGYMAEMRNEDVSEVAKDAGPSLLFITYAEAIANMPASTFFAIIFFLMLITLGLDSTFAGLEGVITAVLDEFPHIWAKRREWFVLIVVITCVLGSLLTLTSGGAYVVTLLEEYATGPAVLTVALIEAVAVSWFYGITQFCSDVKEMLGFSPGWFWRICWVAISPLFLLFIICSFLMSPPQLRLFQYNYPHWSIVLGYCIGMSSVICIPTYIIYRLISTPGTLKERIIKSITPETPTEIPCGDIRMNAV
T3 sequence (P23977 whole entry): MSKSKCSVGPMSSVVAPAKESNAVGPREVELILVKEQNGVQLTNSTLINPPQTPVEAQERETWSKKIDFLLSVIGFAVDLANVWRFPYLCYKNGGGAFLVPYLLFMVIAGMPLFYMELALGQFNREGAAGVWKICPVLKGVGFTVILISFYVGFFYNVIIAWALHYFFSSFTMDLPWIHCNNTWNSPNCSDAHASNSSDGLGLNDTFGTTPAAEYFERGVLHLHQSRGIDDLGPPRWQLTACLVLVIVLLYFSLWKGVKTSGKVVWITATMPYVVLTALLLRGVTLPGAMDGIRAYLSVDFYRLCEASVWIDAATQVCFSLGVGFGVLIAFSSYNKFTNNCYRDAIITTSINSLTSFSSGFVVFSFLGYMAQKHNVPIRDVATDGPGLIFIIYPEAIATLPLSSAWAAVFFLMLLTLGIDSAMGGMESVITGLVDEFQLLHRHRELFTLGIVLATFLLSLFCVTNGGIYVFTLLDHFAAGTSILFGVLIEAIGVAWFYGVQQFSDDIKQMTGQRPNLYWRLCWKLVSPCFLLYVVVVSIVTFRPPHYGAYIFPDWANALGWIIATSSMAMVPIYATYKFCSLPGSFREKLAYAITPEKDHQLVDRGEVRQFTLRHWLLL
Chain of norepinephrine transporter (NET) (Rattus norvegicus, UniProt Q63380) (Q63380 1-617): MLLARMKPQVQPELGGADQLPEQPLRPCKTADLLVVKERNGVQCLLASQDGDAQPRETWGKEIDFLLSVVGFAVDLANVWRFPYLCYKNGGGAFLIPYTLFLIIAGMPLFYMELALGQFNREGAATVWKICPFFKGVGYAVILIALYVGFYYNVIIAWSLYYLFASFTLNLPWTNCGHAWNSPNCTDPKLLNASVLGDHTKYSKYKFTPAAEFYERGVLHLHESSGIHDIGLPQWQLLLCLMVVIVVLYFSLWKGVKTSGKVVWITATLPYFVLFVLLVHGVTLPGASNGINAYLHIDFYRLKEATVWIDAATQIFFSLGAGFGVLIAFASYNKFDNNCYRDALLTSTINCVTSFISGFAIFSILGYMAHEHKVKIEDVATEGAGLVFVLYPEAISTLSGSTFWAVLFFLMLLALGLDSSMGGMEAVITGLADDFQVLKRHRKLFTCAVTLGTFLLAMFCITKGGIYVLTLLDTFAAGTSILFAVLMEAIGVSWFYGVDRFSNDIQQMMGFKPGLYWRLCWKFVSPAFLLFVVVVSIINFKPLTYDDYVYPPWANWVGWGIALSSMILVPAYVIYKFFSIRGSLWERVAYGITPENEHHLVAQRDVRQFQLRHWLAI

`CN1[C@@H]2CC[C@H]1C[C@@H](OC(c1ccc(F)cc1)c1ccc(F)cc1)C2` [Compound 7c, 4',4"-difluoro-3α-(diphenylmethoxy)tropane]: the “potency at dopamine transporter as compared to norepinephrine transporter” value in test [1] is on record as over 700 fold. Besides, the pKi – broadly, the negative decadic logarithm of the Ki, by convention in mol/L – was under 5.07 in test [2] and under 5.07 in test [2] (read-out: NET, Ki, Table IV). The inhibition at 10 µM in test [2] was 30%; in test [3], 62%. Moreover, the Ki (in general, the equilibrium dissociation constant of an inhibitor or competing ligand from its target) in test [3] was over 2440 nM.

Consider `CN1[C@@H]2CC[C@H]1C[C@@H](OC(c1ccccc1)c1ccc(O)cc1)C2` (stereo partly drawn) [Compound 7r, 3α-4'-Hydroxy-(diphenylmethoxy)tropane], for which the pKi on muscarinic m2 receptors was 7.75; on muscarinic m1 receptors (Table III) it was 8.68. The Ki in test [4] is 297 nM. The pIC50 (as a rule, the IC50 on a negative log10 scale, so that one unit is a factor of ten) in test [5] is 6.17. The inhibition at 10 µM in test [2] is 27.3%; in test [3], 23.3%.

On to `CN1[C@@H]2CC[C@H]1C[C@@H](OC(c1ccccc1)c1ccc([N+](=O)[O-])cc1)C2` (stereo partly drawn) [Compound 7f], for which the pKi is 7.38 on muscarinic m2 receptors and 8.15 on muscarinic m1 receptors (Table III). For the same compound, the Ki is 197 nM in [4] and over 3570 nM in test [3]. The pIC50 in test [5] is 6.66. Also, the inhibition at 10 µM in [2] amounted to 29%; in [3], 54%.

Take `CN1[C@@H]2CC[C@H]1C[C@@H](OC(c1ccccc1)c1ccccc1)C2` [Compound 2, 3α-(diphenylmethoxy)-1αH,5αH-tropane]: the CNS stimulatory activity entry in test [6] is recorded as “exhibits CNS stimulatory activity in animal models”. In [7], the “stimulation of locomotor activity” value is recorded as “do not produce locomotor stimulant activity”.

As to `CN1[C@@H]2CC[C@H]1C[C@@H](OC(c1ccc(F)cc1)c1ccc(Cl)c(Cl)c1)C2` (stereo partly drawn) [Compound 7l], the pKi was 6.43 at muscarinic m2 receptors, 7.48 at muscarinic m1 receptors (Table III) and under 5.05 in test [2]. For the same compound, the Ki in [4] is 18.9 nM; in test [3], over 691 nM. The pIC50 in test [5] is 7.62. For the same compound, the figures for the inhibition at 10 µM in [2] and in test [3] were 57.8% and 80.3%, respectively.

Take `CN1[C@@H]2CC[C@H]1C[C@@H](OC(c1ccccc1)c1ccc(Br)cc1)C2` (stereo partly drawn) [Compound 7h]: the figures for the negative logarithm of the Ki (pKi) on muscarinic m2 receptors and on muscarinic m1 receptors (Table III) were 7.41 and 8.43, respectively. Further, in [4], the inhibition constant Ki stood at 37.9 nM. Also, in test [5], the negative logarithm of the IC50 (pIC50) is 7.54. The inhibition at 10 µM in test [2] came to 37%; in [3], 39%.

As to `CCc1ccc(C(O[C@H]2C[C@H]3CC[C@@H](C2)N3C)c2ccccc2)cc1` (stereo partly drawn) [Compound 7q], the pKi on muscarinic m2 receptors is 6.15; at muscarinic m1 receptors (Table III), 7.90. In test [4], the Ki turned out to be 520 nM. For the same compound, the negative-log IC50 (pIC50) in test [5] was 6.01. For the same compound, the inhibition at 10 µM in test [2] was found to be 32.7%; in test [3], 42.7%.

As to `CN1[C@@H]2CC[C@H]1C[C@H](OC(c1ccccc1)c1ccc(Cl)cc1)C2` (stereo partly drawn) [Compound 10, 3β-4'-Chloro-(diphenylmethoxy)tropane], the Ki in test [8] was 854 nM. Moreover, the pIC50 in [5] was 5.45. For the same compound, the inhibition at 10 µM in test [2] came out at 27.9%; in [3], 37.2%.

`CN1[C@@H]2CC[C@H]1C[C@@H](OC(c1ccccc1)c1ccc(C#N)cc1)C2` (stereo partly drawn) [Compound 7g]: the pKi on muscarinic m2 receptors is 7.13; on muscarinic m1 receptors, 8.15. The Ki in test [4] came to 196 nM. Moreover, the pIC50 in test [5] was 6.65. Further, the inhibition at 10 µM in [2] was 16%; in [3], 40%.

For the compound `CN1[C@@H]2CC[C@H]1C[C@@H](OC(c1ccc(Br)cc1)c1ccc(Br)cc1)C2` [Compound 7i], the inhibition at 10 µM is 66% on muscarinic m2 receptors (Table III footnote b, 10 μM, read-out: m2, % Inhibition of radiolabeled ligand binding); 41.1% in test [2]; 41% in test [3]. For the same compound, the “lower affinity for muscarinic m1 receptors than the parent benztropine” value on muscarinic m1 receptors is on record as over 70 fold. Further, the Ki in test [4] stood at 91.6 nM. Besides, the pIC50 in [5] was 7.47.
